Laboratory results published in patent US11850247B2, “Antiviral compounds” (REGENTS OF THE UNIVERSITY OF MINNESOTA, priority 2020, dated 2023).

Legend:
HIV-1 = assay: Anti-HIV-1 activity in TZM-GFP cells (viral LTR-activated GFP expression); format: cell-based; conditions: for inhibition at 2 µM: Human immunodeficiency virus 1, 2 μM compound; for inhibition at 2 µM / inhibition at 20 µM: HIV-1 MOI=1; for inhibition at 20 µM: Human immunodeficiency virus 1, 20 μM compound; for EC50: Human immunodeficiency virus 1, HIV-1 strain MOI=1, GFP positive cells counted after 48 hours
Protocol: The potency of HIV-1 inhibition by a compound was based on its inhibitory effect on viral LTR-activated GFP expression compared with that of compound-free (DMSO) controls. Briefly, TZM-GFP cells were plated at density of 1×10^4 cells per well in a 96-well plate. 24 hours later, media was replaced with increasing concentrations of compound. 24 hours post treatment, cells were exposed to an HIV-1 strain (MOI=1).
(§1) The cytotoxicity of each compound was also determined in TZM-GFP cells. Cells were plated at a density of 1×10^4 cells per well in a 96-well plate and were continuously exposed to increasing concentrations of a compound for 72 hours. The number of viable cells in each well was determined using a Cell Proliferation Kit II (XTT), and 50% cytotoxicity concentration (CC50) values were determined. All the cell-based assays were conducted in duplicate and in at least two independent experiments. For the EC50 and CC50 dose responses, values were plotted in GraphPad Prism 5 and analyzed with the log (inhibitor) vs. normalized response-variable slope equation. Final values were calculated in each independent assay and the average values were determined. Statistical analysis (calculation of standard deviation) was performed by using Microsoft Excel.

[1] = Cytotoxicity in TZM-GFP cells (XTT); format: cell-based; conditions: human, 72 hours exposure, XTT
Protocol: as §1

[2] = molecular target: covalently-crosslinked hexameric CA A14C/E45C/W184A/M185A (CA121) (Human immunodeficiency virus type 1 group M subtype B, UniProt P12493, A146C/E177C/M317A/W316A); assay: Thermal shift assay (TSA), CA hexamer stability; format: binding, HIV-1; conditions: compound 20 μM, ΔTm=Tm−T0 vs DMSO

Row | Compound | inhibition at 2 µM (HIV-1) [%] | inhibition at 20 µM (HIV-1) [%] | CC50 at 72 h [1] [µM] | TSA ΔTm (° C.) [2] [°C] | EC50 (HIV-1) [µM]
1 | Cc1cccc2c1NC(=O)C2CC(=O)N[C@@H](Cc1ccccc1)C(=O)N(C)c1ccccc1 (stereo partly drawn) [Example 1, (2S)—N-methyl-2-(2-(7-methyl-2-oxoindolin-3-yl)acetamido)-N,3-diphenylpropanamide] | 0 | 91 | > 50 | −1.2 | –
2 | Cc1cccc2c1NC(=O)C2CC(=O)N[C@@H](Cc1ccccc1)C(=O)N(C)c1ccc(Cl)cc1 (stereo partly drawn) [Example 2, (2S)—N-(4-chlorophenyl)-N-methyl-2-(2-(7-methyl-2-oxoindolin-3-yl)acetamido)-3-phenylpropanamide] | 17 | 96 | ~50 | −0.4 | –
3 | Cc1cccc2c1NC(=O)C2CC(=O)N[C@@H](Cc1ccccc1)C(=O)N(C)c1cccc(Cl)c1 (stereo partly drawn) [Example 3, (2S)—N-(3-chlorophenyl)-N-methyl-2-(2-(7-methyl-2-oxoindolin-3-yl)acetamido)-3-phenylpropanamide] | – | – | > 100 | −1.7 | 3.3 ± 0.3
4 | Cc1cccc2c1NC(=O)C2CC(=O)N[C@@H](Cc1ccccc1)C(=O)N(C)c1cccc(F)c1 (stereo partly drawn) [Example 4, (2S)—N-(3-fluorophenyl)-N-methyl-2-(2-(7-methyl-2-oxoindolin-3-yl)acetamido)-3-phenylpropanamide] | 0 | 93 | > 50 | −0.9 | –
5 | Cc1ccc(C)c2c1NC(=O)C2CC(=O)N[C@@H](Cc1ccccc1)C(=O)N(C)c1ccccc1 (stereo partly drawn) [Example 5, (2S)-2-(2-(4,7-dimethyl-2-oxoindolin-3-yl)acetamido)-N-methyl-N,3-diphenylpropanamide] | – | – | > 100 | −1.8 | 4.9 ± 0.3
6 | Cc1ccc(C)c2c1NC(=O)C2CC(=O)N[C@@H](Cc1ccccc1)C(=O)N(C)c1ccc(F)cc1 (stereo partly drawn) [Example 6, (2S)-2-(2-(4,7-dimethyl-2-oxoindolin-3-yl)acetamido)-N-(4-fluorophenyl)-N-methyl-3-phenylpropanamide] | – | – | > 100 | −1.7 | 5.4 ± 0.5
7 | Cc1ccc(C)c2c1NC(=O)C2CC(=O)N[C@@H](Cc1ccccc1)C(=O)N(C)c1cccc(F)c1 (stereo partly drawn) [Example 7, (2S)-2-(2-(4,7-dimethyl-2-oxoindolin-3-yl)acetamido)-N-(3-fluorophenyl)-N-methyl-3-phenylpropanamide] | – | – | 60 ± 6 | −1.8 | 5.2 ± 0.4
8 | Cc1ccc(C)c2c1NC(=O)C2CC(=O)N[C@@H](Cc1ccccc1)C(=O)N(C)c1ccc(Cl)cc1 (stereo partly drawn) [Example 8, (2S)—N-(4-chlorophenyl)-2-(2-(4,7-dimethyl-2-oxoindolin-3-yl)acetamido)-N-methyl-3-phenylpropanamide] | – | – | 63 ± 13 | −1.3 | 2.8 ± 0.1
9 | Cc1ccc(C)c2c1NC(=O)C2CC(=O)N[C@@H](Cc1ccccc1)C(=O)N(C)c1cccc(Cl)c1 (stereo partly drawn) [Example 9, (2S)—N-(3-chlorophenyl)-2-(2-(4,7-dimethyl-2-oxoindolin-3-yl)acetamido)-N-methyl-3-phenylpropanamide] | – | – | 43 ± 2 | −2.4 | 2.1 ± 0.2
10 | CN(C(=O)[C@H](Cc1ccccc1)NC(=O)Cc1ccc2ccccc2c1)c1ccccc1 [Example 10, (S)—N-methyl-2-(2-(naphthalen-2-yl)acetamido)-N,3-diphenylpropanamide] | 40 | 98 | < 50 | 4.8 | –
11 | Cc1ccc(N(C)C(=O)[C@H](Cc2ccccc2)NC(=O)Cc2ccc3ccccc3c2)cc1 [Example 11, (S)—N-methyl-2-(2-(naphthalen-2-yl)acetamido)-3-phenyl-N-(p-tolyl)propanamide] | – | – | < 50 | 6.4 | 0.99 ± 0.005
12 | CN(C(=O)[C@H](Cc1ccccc1)NC(=O)Cc1ccc2ccccc2c1)c1ccc(Cl)cc1 [Example 12, (S)—N-(4-chlorophenyl)-N-methyl-2-(2-(naphthalen-2-yl)acetamido)-3-phenylpropanamide] | – | – | < 50 | 7.0 | 0.63 ± 0.02
13 | CN(C(=O)[C@H](Cc1ccccc1)NC(=O)Cc1ccc2ccccc2c1)c1cccc(Cl)c1 [Example 13, (S)—N-(3-chlorophenyl)-N-methyl-2-(2-(naphthalen-2-yl)acetamido)-3-phenylpropanamide] | 0 | 94 | < 50 | 4.3 | –
14 | CN(C(=O)[C@H](Cc1ccccc1)NC(=O)Cc1ccc2ccccc2c1)c1cccc(F)c1 [Example 14, (S)—N-(3-fluorophenyl)-N-methyl-2-(2-(naphthalen-2-yl)acetamido)-3-phenylpropanamide] | 0 | 97 | < 50 | 5.2 | –
15 | CCN(C(=O)[C@H](Cc1ccccc1)NC(=O)Cc1ccc2ccccc2c1)c1ccccc1 [Example 15, (S)—N-ethyl-2-(2-(naphthalen-2-yl)acetamido)-N,3-diphenylpropanamide] | 46 | 97 | < 50 | 4.3 | –
16 | CN(C(=O)[C@H](Cc1ccccc1)NC(=O)Cc1cccc2ccccc12)c1ccccc1 [Example 16, (S)—N-methyl-2-(2-(naphthalen-1-yl)acetamido)-N,3-diphenylpropanamide] | – | – | < 50 | 6.0 | 1.1 ± 0.04
17 | Cc1ccc(N(C)C(=O)[C@H](Cc2ccccc2)NC(=O)Cc2cccc3ccccc23)cc1 [Example 17, (S)—N-methyl-2-(2-(naphthalen-1-yl)acetamido)-3-phenyl-N-(p-tolyl)propanamide] | – | – | < 50 | 5.7 | 1 ± 0.2
18 | O=C(Cc1c[nH]c2ccccc12)N[C@@H](Cc1ccccc1)c1ncccc1-c1ccc(Cl)cc1 [Example 54, (S)-2-(1H-indol-3-yl)-N-(2-phenyl-1-(3-(4-chlorophenyl)pyridin-2-yl)ethyl)acetamide] | – | – | – | 7.7 ± 0.2 | 0.79 ± 0.25
19 | COc1ccc2[nH]cc(CC(=O)N[C@@H](Cc3ccccc3)c3ncccc3-c3ccc(Cl)cc3)c2c1 [Example 55, (S)-2-(5-methoxy-1H-indol-3-yl)-N-(2-phenyl-1-(3-(4-chlorophenyl)pyridin-2-yl)ethyl)acetamide] | – | – | – | 7.8 ± 0.3 | 1.4 ± 0.7
20 | O=C(Cc1c[nH]c2ccc(O)cc12)N[C@@H](Cc1ccccc1)c1ncccc1-c1ccc(Cl)cc1 [Example 56, (S)-2-(5-hydroxy-1H-indol-3-yl)-N-(2-phenyl-1-(3-(4-chlorophenyl)pyridin-2-yl)ethyl)acetamide] | – | – | – | 8.7 ± 0.3 | 0.31 ± 0.07
21 | CCn1cc(CC(=O)N[C@@H](Cc2ccccc2)c2ncccc2-c2ccc(Cl)cc2)c2ccccc21 [Example 57, (S)-2-(1-ethyl-1H-indol-3-yl)-N-(2-phenyl-1-(3-(4-chlorophenyl)pyridin-2-yl)ethyl)acetamide] | – | – | – | 6.6 ± 0.2 | 2.7 ± 0.2
22 | CCn1cc(CC(=O)N[C@@H](Cc2ccccc2)c2ncccc2-c2ccc(Cl)cc2)c2cc(OC)ccc21 [Example 58, (S)-2-(1-ethyl-5-methoxy-1H-indol-3-yl)-N-(2-phenyl-1-(3-(4-chlorophenyl)pyridin-2-yl)ethyl)acetamide] | – | – | – | 5.9 ± 0.2 | 3.6 ± 0.2
23 | COc1ccc2[nH]cc(CC(=O)N[C@@H](Cc3ccccc3)c3ncccc3-c3ccc(Br)cc3)c2c1 [Example 59, (S)-2-(5-methoxy-1H-indol-3-yl)-N-(2-phenyl-1-(3-(4-bromophenyl)pyridin-2-yl)ethyl)acetamide] | – | – | – | 6.3 ± 0.6 | 2.1 ± 0.8
24 | CCn1cc(CC(=O)N[C@@H](Cc2ccccc2)c2ncccc2-c2ccc(Br)cc2)c2ccccc21 [Example 60, (S)-2-(1-ethyl-1H-indol-3-yl)-N-(2-phenyl-1-(3-(4-bromophenyl)pyridin-2-yl)ethyl)acetamide] | – | – | – | 6.3 ± 0.1 | 3.2 ± 0.3
25 | COc1ccc2[nH]cc(CC(=O)N[C@@H](Cc3ccccc3)c3nccn3-c3ccc(Cl)cc3)c2c1 [Example 61, (S)-2-(5-methoxy-1H-indol-3-yl)-N-(2-phenyl-1-(1-(4-chlorophenyl)-1H-imidazol-2-yl)ethyl)acetamide] | – | – | – | 4.0 ± 0.3 | 3.3 ± 0.03
26 | COc1ccc2[nH]cc(CC(=O)N[C@@H](Cc3ccccc3)c3nccn3-c3ccc(Br)cc3)c2c1 [Example 62, (S)-2-(5-methoxy-1H-indol-3-yl)-N-(2-phenyl-1-(1-(4-bromophenyl)-1H-imidazol-2-yl)ethyl)acetamide] | – | – | – | 2.8 ± 0.3 | 3.5 ± 0.3
27 | COc1ccc2[nH]cc(CC(=O)N[C@@H](Cc3ccccc3)c3nccn3-c3ccc(I)cc3)c2c1 [Example 63, (S)-2-(5-methoxy-1H-indol-3-yl)-N-(2-phenyl-1-(1-(4-iodophenyl)-1H-imidazol-2-yl)ethyl)acetamide] | – | – | – | 2.7 ± 0.1 | 3.3 ± 0.2
